The values that follow are results of earlier work, collected in patent US6548469B2, “Cleaning compositions” (Merck Patent GmbH, priority 1996, dated 2003).

Structures are written as SMILES.

For this data set the following is noted: use in cosmetics formulations on humans.

With `CCCCN(CCC(=O)OCC)C(C)=O` [ethyl 3-(N-butylacetamino)propionate], the “skin and mucosa tolerance” value is on record as “outstanding”; the “toxic, allergizing or sensitizing properties” value is recorded as “without toxic, allergizing or sensitizing properties”.
